# Assay results as given in publication PMC5224920, “Assessing the mechanism and therapeutic potential of modulators of the human Mediator complex-associated protein kinases” (eLife, 2016).
# System: 12 single or co-culture in vitro tissue models of primary cells
# Assay: Culture/co-culture cell model panel, extracellular biomarkers (DiscoveRx); as to CCL2/MCP-1: reference of the scale not given here; as to CD141/Thrombomodulin: reference of the scale not given here; as to CD142/Tissue Factor: reference of the scale not given here; as to CD38: reference of the scale not given here; as to CD40: reference of the scale not given here; as to CD69: reference of the scale not given here; as to CXCL8/IL-8: reference of the scale not given here; as to CXCL9/MIG: reference of the scale not given here; as to IL-1alpha: reference of the scale not given here; as to M-CSF: reference of the scale not given here; as to SRB: reference of the scale not given here; as to sPGE2: reference of the scale not given here; as to sTNF-alpha: reference of the scale not given here
# Format: cell-based, human
# [1] = HDF3CGF stimulated fibroblasts, 4.12E1 nM
# [2] = HDF3CGF stimulated fibroblasts, 4.57E0 nM
# [3] = HPNo Huvec+PBMC unstimulated, 1.00E4 nM
# [4] = HPNo Huvec+PBMC unstimulated, 1.11E3 nM
# [5] = HPNo Huvec+PBMC unstimulated, 1.23E2 nM
# [6] = HPNo Huvec+PBMC unstimulated, 1.37E1 nM
# [7] = HPNo Huvec+PBMC unstimulated, 3.33E3 nM
# [8] = HPNo Huvec+PBMC unstimulated, 3.70E2 nM
# [9] = HPNo Huvec+PBMC unstimulated, 4.12E1 nM
# [10] = HPNo Huvec+PBMC unstimulated, 4.57E0 nM
compound,measurement,setting,value
Cc1n[nH]c2ncc(C(=O)N3CCC[C@H]3c3ccc(Cl)cc3)cc12 [CMPD4],CXCL9/MIG,[1],-0.024
same,CXCL10/IP-10,[1],0.059
same,CXCL11/I-TAC,[1],-0.035
same,Collagen I,[1],0.021
same,Collagen III,[1],0.082
same,EGFR,[1],-0.094
same,M-CSF,[1],-0.046
same,MMP-1,[1],-0.00129
same,PAI-I,[1],0.033
same,Proliferation_72hr,[1],-0.178
same,SRB,[1],0.010
same,TIMP-1,[1],-0.070
same,TIMP-2,[1],0.099
same,CCL2/MCP-1,[2],-0.020
same,CD54/ICAM-1,[2],-0.041
same,CD106/VCAM-1,[2],0.047
same,CXCL8/IL-8,[2],-0.013
same,CXCL9/MIG,[2],0.00852
same,CXCL10/IP-10,[2],0.000432
same,CXCL11/I-TAC,[2],-0.0056
same,Collagen I,[2],0.023
same,Collagen III,[2],0.081
same,EGFR,[2],-0.043
same,M-CSF,[2],-0.051
same,MMP-1,[2],0.013
same,PAI-I,[2],-0.032
same,Proliferation_72hr,[2],-0.119
same,SRB,[2],0.018
same,TIMP-1,[2],-0.010
same,TIMP-2,[2],0.136
same,CCL2/MCP-1,[3],0.039
same,CD38,[3],0.081
same,CD40,[3],-0.033
same,CD106/VCAM-1,[3],0.342
same,CD141/Thrombomodulin,[3],0.00066
same,CD142/Tissue Factor,[3],0.063
same,CCL2/MCP-1,[4],0.053
same,CD38,[4],-0.040
same,CD40,[4],-0.130
same,CD106/VCAM-1,[4],0.396
same,CD141/Thrombomodulin,[4],0.021
same,CD142/Tissue Factor,[4],0.064
same,CCL2/MCP-1,[5],0.040
same,CD38,[5],-0.022
same,CD40,[5],-0.171
same,CD106/VCAM-1,[5],0.307
same,CD141/Thrombomodulin,[5],0.025
same,CD142/Tissue Factor,[5],0.061
same,CCL2/MCP-1,[6],0.053
same,CD38,[6],-0.066
same,CD40,[6],-0.106
same,CD106/VCAM-1,[6],0.175
same,CD141/Thrombomodulin,[6],0.022
same,CD142/Tissue Factor,[6],0.010
same,CCL2/MCP-1,[7],0.058
same,CD38,[7],0.024
same,CD40,[7],-0.093
same,CD106/VCAM-1,[7],0.305
same,CD141/Thrombomodulin,[7],0.019
same,CD142/Tissue Factor,[7],0.022
same,CCL2/MCP-1,[8],0.274
same,CD38,[8],-0.028
same,CD40,[8],-0.186
same,CD106/VCAM-1,[8],0.375
same,CD141/Thrombomodulin,[8],0.045
same,CD142/Tissue Factor,[8],0.045
same,CCL2/MCP-1,[9],0.148
same,CD38,[9],-0.052
same,CD40,[9],-0.089
same,CD106/VCAM-1,[9],0.250
same,CD141/Thrombomodulin,[9],0.031
same,CD142/Tissue Factor,[9],0.096
same,CCL2/MCP-1,[10],-0.076
same,CD38,[10],-0.060
same,CD40,[10],-0.075
same,CD106/VCAM-1,[10],0.144
same,CD141/Thrombomodulin,[10],0.022
same,CD142/Tissue Factor,[10],0.017
same,CD62E/E-Selectin,"HPNo, 1.00E4 nM",0.080
same,CD69,"HPNo, 1.00E4 nM",0.150
same,CXCL8/IL-8,"HPNo, 1.00E4 nM",0.030
same,CXCL9/MIG,"HPNo, 1.00E4 nM",-0.025
same,M-CSF,"HPNo, 1.00E4 nM",0.075
same,SRB,"HPNo, 1.00E4 nM",-0.053
same,sPGE2,"HPNo, 1.00E4 nM",0.066
same,sTNF-alpha,"HPNo, 1.00E4 nM",-0.036
same,CD62E/E-Selectin,"HPNo, 1.11E3 nM",0.014
same,CD69,"HPNo, 1.11E3 nM",0.063
same,CXCL8/IL-8,"HPNo, 1.11E3 nM",-0.048
same,CXCL9/MIG,"HPNo, 1.11E3 nM",-0.091
same,M-CSF,"HPNo, 1.11E3 nM",0.074
same,SRB,"HPNo, 1.11E3 nM",-0.034
same,sPGE2,"HPNo, 1.11E3 nM",0.043
same,sTNF-alpha,"HPNo, 1.11E3 nM",-0.019
same,CD62E/E-Selectin,"HPNo, 1.23E2 nM",-0.027
same,CD69,"HPNo, 1.23E2 nM",0.039
same,CXCL8/IL-8,"HPNo, 1.23E2 nM",0.011
same,CXCL9/MIG,"HPNo, 1.23E2 nM",-0.025
same,M-CSF,"HPNo, 1.23E2 nM",-0.084
same,SRB,"HPNo, 1.23E2 nM",-0.005
same,sPGE2,"HPNo, 1.23E2 nM",0.030
same,sTNF-alpha,"HPNo, 1.23E2 nM",0.010
same,CD62E/E-Selectin,"HPNo, 1.37E1 nM",-0.035
same,CD69,"HPNo, 1.37E1 nM",-0.005
same,CXCL8/IL-8,"HPNo, 1.37E1 nM",-0.023
same,CXCL9/MIG,"HPNo, 1.37E1 nM",-0.068
same,M-CSF,"HPNo, 1.37E1 nM",0.015
same,SRB,"HPNo, 1.37E1 nM",0.027
same,sPGE2,"HPNo, 1.37E1 nM",0.00254
same,sTNF-alpha,"HPNo, 1.37E1 nM",0.00645
same,CD62E/E-Selectin,"HPNo, 3.33E3 nM",-0.020
same,CD69,"HPNo, 3.33E3 nM",0.040
same,CXCL8/IL-8,"HPNo, 3.33E3 nM",-0.040
same,CXCL9/MIG,"HPNo, 3.33E3 nM",0.018
same,M-CSF,"HPNo, 3.33E3 nM",0.034
same,SRB,"HPNo, 3.33E3 nM",-0.058
same,sPGE2,"HPNo, 3.33E3 nM",0.038
same,sTNF-alpha,"HPNo, 3.33E3 nM",-0.021
same,CD62E/E-Selectin,"HPNo, 3.70E2 nM",0.026
same,CD69,"HPNo, 3.70E2 nM",0.012
same,CXCL8/IL-8,"HPNo, 3.70E2 nM",-0.025
same,CXCL9/MIG,"HPNo, 3.70E2 nM",-0.067
same,M-CSF,"HPNo, 3.70E2 nM",-0.063
same,SRB,"HPNo, 3.70E2 nM",-0.017
same,sPGE2,"HPNo, 3.70E2 nM",0.040
same,sTNF-alpha,"HPNo, 3.70E2 nM",-0.022
same,CD62E/E-Selectin,"HPNo, 4.12E1 nM",-0.00169
same,CD69,"HPNo, 4.12E1 nM",0.020
same,CXCL8/IL-8,"HPNo, 4.12E1 nM",0.023
same,CXCL9/MIG,"HPNo, 4.12E1 nM",-0.041
same,M-CSF,"HPNo, 4.12E1 nM",-0.031
same,SRB,"HPNo, 4.12E1 nM",-0.00266
same,sPGE2,"HPNo, 4.12E1 nM",0.016
same,sTNF-alpha,"HPNo, 4.12E1 nM",0.015
same,CD62E/E-Selectin,"HPNo, 4.57E0 nM",0.045
same,CD69,"HPNo, 4.57E0 nM",0.075
same,CXCL8/IL-8,"HPNo, 4.57E0 nM",0.031
same,CXCL9/MIG,"HPNo, 4.57E0 nM",-0.000203
same,M-CSF,"HPNo, 4.57E0 nM",0.012
same,SRB,"HPNo, 4.57E0 nM",0.035
same,sPGE2,"HPNo, 4.57E0 nM",0.00462
same,sTNF-alpha,"HPNo, 4.57E0 nM",0.128
same,CCL2/MCP-1,"LPS Huvec+PBMC, 1.00E4 nM",-0.081
same,CD40,"LPS Huvec+PBMC, 1.00E4 nM",-0.109
same,CD62E/E-Selectin,"LPS Huvec+PBMC, 1.00E4 nM",0.010
same,CD69,"LPS Huvec+PBMC, 1.00E4 nM",0.030
same,CD106/VCAM-1,"LPS Huvec+PBMC, 1.00E4 nM",0.079
same,CD141/Thrombomodulin,"LPS Huvec+PBMC, 1.00E4 nM",0.127
same,CD142/Tissue Factor,"LPS Huvec+PBMC, 1.00E4 nM",0.079
same,CXCL8/IL-8,"LPS Huvec+PBMC, 1.00E4 nM",-0.169
same,IL-1alpha,"LPS Huvec+PBMC, 1.00E4 nM",0.125
same,M-CSF,"LPS Huvec+PBMC, 1.00E4 nM",0.029
same,SRB,"LPS Huvec+PBMC, 1.00E4 nM",-0.141
same,sPGE2,"LPS Huvec+PBMC, 1.00E4 nM",0.164
same,sTNF-alpha,"LPS Huvec+PBMC, 1.00E4 nM",-0.051
same,CCL2/MCP-1,"LPS Huvec+PBMC, 1.11E3 nM",-0.044
same,CD40,"LPS Huvec+PBMC, 1.11E3 nM",-0.137
same,CD62E/E-Selectin,"LPS Huvec+PBMC, 1.11E3 nM",0.000345
same,CD69,"LPS Huvec+PBMC, 1.11E3 nM",0.043
same,CD106/VCAM-1,"LPS Huvec+PBMC, 1.11E3 nM",0.105
same,CD141/Thrombomodulin,"LPS Huvec+PBMC, 1.11E3 nM",0.090
same,CD142/Tissue Factor,"LPS Huvec+PBMC, 1.11E3 nM",0.097
same,CXCL8/IL-8,"LPS Huvec+PBMC, 1.11E3 nM",-0.191
